Test [1] deals with AMPA receptors. The test can be described thus: AMPA receptor binding affinity (Honore et al. method). To be noted: Table 1, AMPA.
The target in test [2] is kainate site (non-NMDA receptor). The test is described as follows: Kainate site (non-NMDA receptor) binding affinity (London and Coyle method). Conditions: Table 1, KA (kainate).
Test [3] deals with T1, glycine site of the NMDA receptor (Rattus norvegicus, UniProt P35439).
T1 construct: from tissue
The test can be described thus: Glycine site of the NMDA receptor binding affinity (Jones et al. method). To be noted: Table 1, GLY (glycine site of NMDA receptor).

`Cc1c([N+](=O)[O-])cc2[nH]c(=O)c(=O)[nH]c2c1CN(C)C(=O)Nc1ccccc1` [Compound 1, 1-Methyl-1-(6-methyl-7-nitro-2,3-dioxo-1,2,3,4-tetrahydro-quinoxalin-5-ylmethyl)-3-phenyl-urea]: the 50% inhibitory concentration (IC50) in test [1] amounted to 130 nM; in test [3], 8 nM. The “IC50 KA” value in test [2] was found to be 820 nM.
For the molecule `COc1ccc(NC(=O)N(C)Cc2c(C)c([N+](=O)[O-])cc3[nH]c(=O)c(=O)[nH]c23)cc1` [Compound 2, 3-(4-Methoxy-phenyl)-1-methyl-1-(6-methyl-7-nitro-2,3-dioxo-1,2,3,4-tetrahydro-quinoxalin-5-ylmethyl)-urea], the IC50 in test [1] amounted to 170 nM; in test [3], 5 nM. For the same molecule, the “IC50 KA” value in test [2] turned out to be 1120 nM.
On to `COc1ccc(NC(=S)N(C)Cc2c(C)c([N+](=O)[O-])cc3[nH]c(=O)c(=O)[nH]c23)cc1` [Compound 3, 3-(4-Methoxy-phenyl)-1-methyl-1-(6-methyl-7-nitro-2,3-dioxo-1,2,3,4-tetrahydro-quinoxalin-5-ylmethyl)-thiourea], for which the IC50 worked out at 230 nM in test [1] and 40 nM in test [3]. Further, the “IC50 KA” value in test [2] worked out at 2540 nM.
Taken in the same sequence, the figures for `Cc1ccc(NC(=O)N(C)Cc2c(C)c([N+](=O)[O-])cc3[nH]c(=O)c(=O)[nH]c23)c(C)c1` [Compound 4, 3-(2,4-Dimethyl-phenyl)-1-methyl-1-(6-methyl-7-nitro-2,3-dioxo-1,2,3,4-tetrahydro-quinoxalin-5-ylmethyl)-urea] were 3600 nM, 20 nM and 6700 nM.
With `COc1ccc(OC)c(NC(=O)N(C)Cc2c(C)c([N+](=O)[O-])cc3[nH]c(=O)c(=O)[nH]c23)c1` [Compound 5, 3-(2,5-Dimethoxy-phenyl)-1-methyl-1-(6-methyl-7-nitro-2,3-dioxo-1,2,3,4-tetrahydro-quinoxalin-5-ylmethyl)-urea], the IC50 in test [1] stood at 3000 nM; in test [3] it was 10 nM. Besides, the “IC50 KA” value in test [2] was 9540 nM.
On the same counts, the results for `Cc1c([N+](=O)[O-])cc2[nH]c(=O)c(=O)[nH]c2c1CN(C)C(=O)Nc1ccccc1C(F)(F)F` [Compound 6, 1-Methyl-1-(6-methyl-7-nitro-2,3-dioxo-1,2,3,4-tetrahydro-quinoxalin-5-ylmethyl)-3-(2-trifluoromethyl-phenyl)-urea] are 2850 nM, 10 nM and 7500 nM.
As for `CCOC(=O)c1ccc(NC(=O)N(C)Cc2c(C)c([N+](=O)[O-])cc3[nH]c(=O)c(=O)[nH]c23)cc1` [Compound 7, 4-(3-Methyl-3-(6-methyl-7-nitro-2,3-dioxo-1,2,3,4-tetrahydro-quinoxalin-5-ylmethyl)ureido)-benzoic acid ethyl ester], the IC50 is 4110 nM in test [1] and 10 nM in test [3]. For the same molecule, in test [2], the “IC50 KA” value was 18400 nM.

The IC50 is the midpoint of a concentration-inhibition curve. A low value points to greater potency in that assay.
